Four compounds from ChEMBL document CHEMBL1201862, “PubChem BioAssay data set” (2004) can be followed below.

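1) Cells in 96-well plates. 2) Compound, 48 h, 5 concentrations. 3) Linear interpolation between surrounding doses. 4) Unreached endpoint = highest concentration. The concentration for 50% growth inhibition is given as GI50.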 The source made the active and inactive calls. Rule as the data show it: active = GI50 up to about 1.1 µM and inactive = higher.

As a reminder, the GI50 is the concentration at which growth is held to half of that of the control.

Common to all, as to assay: DTP human tumour cell line panel, 48 h
Assay [1] has as its system OVCAR-5.
Assay [2] has as its system U-251.
Assay [3] relates to HCT-116.
Assay [4] has as its system OVCAR-3.
Assay [5] relates to SNB-75.
Assay [6] concerns SF-268.
In assay [7] the test system is NCI-H460.
Assay [8] has as its system IGROV-1.
In assay [9] the test system is SW-620.
Assay [10] has as its system UO-31.
Assay [11] deals with EKVX.
The subject of assay [12] is OVCAR-8.
In assay [13] the test system is HCT-15.
The subject of assay [14] is SNB-19.
The subject of assay [15] is NCI-H23.
Assay [16] has as its system UACC-62.
Assay [17] relates to M14.
The test system of assay [18] is COLO 205.
For assay [19], the system named is MOLT-4.
For assay [20], the system named is HL-60.

Take `CCOC(=O)C(NC(=O)c1ccccc1)(c1ccc(S(=O)(=O)Nc2onc(C)c2C)cc1)C(F)(F)F` (centres undefined): the GI50 in assay [1], in assay [2], in assay [3], in [4], in [5] and in assay [6] was > 100 µM (inactive) throughout. In addition, the GI50 in assay [7], in assay [8], in assay [9], in assay [10], in assay [11] and in assay [12] was > 100 µM (inactive) throughout. Moreover, the GI50 in [13] was more than 100 µM; in assay [14], > 100 µM (inactive); in assay [15], > 100 µM (inactive); in [16] it was > 100 µM (inactive); in assay [17] it was > 100 µM (inactive); in [18] it was > 100 µM (inactive). Also, the GI50 in assay [19] and in [20] was > 100 µM (inactive) in each case.

Take `COc1nc(C#CCC(C)O)nc(OC)n1` (centres undefined): the GI50 in assay [1] was 19.1 µM (inactive); in assay [2], 29.6 µM (inactive); in assay [3] it was 14.9 µM (inactive); in assay [4], 19.5 µM (inactive); in assay [5] it was 27 µM (inactive); in [6], 21.3 µM (inactive). Further, the GI50 is 39.4 µM (inactive) in assay [7]; 15.7 µM (inactive) in assay [8]; 23.1 µM (inactive) in [9]; 18.2 µM (inactive) in [10]; 20 µM (inactive) in assay [11]; 17.1 µM (inactive) in assay [12]. The 50% growth inhibitory concentration (GI50) in assay [13] is 18.6 µM; in assay [14], > 100 µM (inactive); in assay [15] it was 19.9 µM (inactive); in assay [16], 15.1 µM (inactive); in [17] it was 16.9 µM (inactive); in assay [18], 25.4 µM (inactive). Further, the GI50 in assay [19] is 33.2 µM (inactive); in assay [20], 24.3 µM (inactive).

As to `O=C1C(Br)=C(c2ccccc2)O/C1=C/C(=O)c1ccc(Br)cc1`, the GI50 in assay [1] is > 100 µM (inactive); in [2], 30.8 µM (inactive); in assay [3] it was 39.4 µM (inactive); in assay [4], 83.2 µM (inactive); in assay [5], > 100 µM (inactive); in [6], 53.1 µM (inactive). Also, the GI50 in assay [7] was > 100 µM (inactive); in assay [8], 54.7 µM (inactive); in assay [9], 23.5 µM (inactive); in assay [10], 28.8 µM (inactive); in [11], > 100 µM (inactive); in assay [12], 27 µM (inactive). For the same compound, the GI50 in assay [13] is 89.9 µM; in [14], > 100 µM (inactive); in assay [15], > 100 µM (inactive); in assay [16], 23.9 µM (inactive); in [17], > 100 µM (inactive); in assay [18], > 100 µM (inactive). Further, the GI50 is 31.6 µM (inactive) in assay [19] and 13 µM (inactive) in assay [20].

Turning to `CC1=C2C(O)C(C(C)C(=O)NC(C)C)CCC2(C)C=CC1=O` (centres undefined), the GI50 in [1], in assay [2], in [3], in assay [4], in assay [5] and in [6] was > 100 µM (inactive) throughout. Moreover, the GI50 in assay [7], in assay [8], in [9], in assay [10], in [11] and in [12] was > 100 µM (inactive) throughout. For the same compound, the 50% growth inhibitory concentration (GI50) in [13] is more than 100 µM; in assay [14], > 100 µM (inactive); in assay [15], > 100 µM (inactive); in [16], > 100 µM (inactive); in assay [18], > 100 µM (inactive); in [19] it was > 100 µM (inactive). Also, the GI50 in assay [20] is > 100 µM (inactive).
